Measurements as given in patent publication US8367733B2 (Vallinex, Inc., priority 2002, dated 2013).
Read-outs that look alike come from different tables or passages of the source.

How the values were obtained:
[1] = more potent than capsaicin; cited from earlier work
[2] = tested on: subjects with osteoarthritis of the knee; test: Osteoarthritis of the knee safety study (Phase 1): safety, tolerability and VAS pain after intra-articular infiltration; type: in vivo, human; conditions: for patients reporting transient burning pain immediately following instillation: after 2% lignocaine
Procedure: The primary objective of the study was to evaluate the safety and tolerability of intra-articular capsaicin, when co-administered with intra-articular local anesthetic, compared to placebo, in subjects with end-stage osteoarthritis of the knee, already scheduled to receive knee replacements.
Study drug was stored at a temperature between 15° C. and 25° C.
The study was designed to include 16 evaluation subjects. […] Sixteen subjects completed the study.
Patients were treated randomly and in double-blind fashion in four treatment cohorts, with each cohort having a progressively longer interval between the intra-articular administration of study medication and subsequent total knee replacement (2, 4, 7, and 14 days). […] Gross and microscopic pathology analysis was completed for each treatment cohort before the next treatment coort was treated.
Each subject had 3 study visits: a Screening Day (Day −7 to −1), the Treatment Day (Day 0), and a Post-Treatment Day (scheduled for Day +2, +4, +7, or +14). On the Treatment Day the subject was randomized, pre-treatment evaluation was performed. The patients were brought into the procedure room, and a VAS pain score was taken (0 mm—no pain, 100 mm—extreme pain). Once the patient had marked his or her pain on the card, he/she was prepped for knee cannulation. Once the cannula was placed, the patient received by intra-articular infiltration, 3 mg/kg (maximum dose of 200 mg) of 2% lignocaine into the knee scheduled to be replaced.
VAS pain scores as well as verbal reports were taken immediately following administration, as well as prior to knee replacement surgery. No subjects discontinued from the study due to adverse events.
On the Post-Treatment Day, study evaluation was performed followed by the scheduled knee replacement, with intra-operative bone and soft tissue biopsies performed for subsequent examination. […] This therefore left the 3 placebo and 9 active patients from the 4 day, 7 day, and 14 day cohorts.

[3] = cited from earlier work
[4] = tested on: subjects undergoing transpositional osteotomy (bunionectomy) for hallux valgus deformity; test: Bunionectomy efficacy study (Phase II), intra-operative infiltration into the wound; type: in vivo, human; conditions: for VAS pain score at operation site (Table 4): 1000 μg into wound, mean +/− SEM, n = 11
Procedure: The primary efficacy endpoint was the proportion of subjects in each treatment group requiring opioid analgesia in the first 24 hours post-operatively. The proportions were compared amongst treatment groups using the Cochran-Haenszel test. Secondary efficacy end points included: i) proportion of subjects in each treatment group requiring opioid analgesia in the first 36 hour period post-operatively (Similarly, the proportions were compared amongst treatment groups using the Cochran-Haenszel test); ii) proportion of subjects in each treatment group requiring opioid analgesia in the 10 day period post-operatively (Similarly, the proportions were compared amongst treatment groups using the Cochran-Haenszel test); iii) time to first usage of opioid analgesia in each treatment group (a survival analysis approach will be used: the product-limit (Kaplan-Meier) method will be applied to time to first usage of opioid analgesia. The median time to first usage of opioid analgesia will be estimated in both treatment groups. Pairwise comparisons will be performed to test for equality of the survival curves between the 2 treatment groups using both the log-rank and the Wilcoxon test); iv) total usage of analgesia in each treatment group (the total usage of analgesia will be compared by an analysis of variance with treatment and center as independent variables. A pairwise comparison will be performed between the treatment groups); and v) VAS assessment of pain at the site of operation in each treatment group (The VAS score at each time point will be compared by an analysis of variance with treatment and center as independent variables. A pairwise comparison will be performed between the treatment groups). […] The efficacy analysis was performed on the data obtained ten days postoperatively. The safety analysis was performed based on the safety data for the entire study, including the 6 week and 12 week follow-up periods. The blind was broken at the time the efficacy analysis was performed. However, the individual treatment assignment was available to the statistical analysis group only. All other personnel involved in the study, including the Investigator, study monitor and proprietary staff, remained blinded until the entire study was completed.
The study was designed to include 40 evaluation subjects. […] Each subject had six (6) study visits: a Screening Day (Day −28 to −1), an Operation Day (Day 0), and four (4) Follow-up visits (scheduled for Days 3, 10 and weeks 6 and 12).
On Operation Day (Day 0) the following was performed: a) Pre-operation: Prior to the initiation of an ankle block, inclusion/exclusion criteria assessment was performed. […] Immediately prior to wound closure, the Investigator slowly dripped the study medication (4 mL) from a syringe into the wound, ensuring even tissue exposure. The wound was then closed according to normal practices and procedures.
In the 24 hours following administration of study medication, vital signs (supine pulse rate and blood pressure) were recorded at 1, 2, 4 and 24 hours post administration. VAS assessment of pain at the operation site was performed at 1, 4, 8, 12 and 24 hours post administration. In those instances where VAS measurements coincide with blood sampling procedures, the VAS assessment was performed first. […] The quantity of each blood sample was 10 mL. Laboratory safety assessments, e.g., haematology, biochemistry, urinalysis were performed at 24 hours post administration. Adverse events were spontaneously reported by the subject and recorded. Rescue analgesia medication was provided to the subject if required (initially diclofenac 50 mg, repeated at 8 hourly intervals if necessary).

[5] = tested on: radiation induced hyperalgesia; conditions: systemic, cited from earlier work
[6] = 10, 100, 300 μg intra-articular

C=C(C)[C@]12C[C@@H](C)[C@@]34O[C@](Cc5ccccc5)(O[C@@H]1[C@@H]3C=C(COC(=O)Cc1ccc(O)c(OC)c1)C[C@]1(O)C(=O)C(C)=C[C@@H]41)O2 [Resiniferatoxin, resiniferatoxin]
potency compared with capsaicin [1]: 10^3-10^4 fold

COc1cc(CNC(=O)CCCC/C=C/C(C)C)ccc1O [purified capsaicin, N-(4-hydroxy-3-methoxybenzyl)-8-methylnon-trans-6-enamide]
patients reporting transient burning pain immediately following instillation ([2]; 10 μg intra-articular): 0 of 4
subjects requiring intervention for post-injection (hyper)algesia ([2]; 100 μg dose group (n=4)): 1 subject
patients reporting transient burning pain immediately following instillation ([2]; 100 μg intra-articular): 1 of 4
subjects requiring intervention for post-injection (hyper)algesia ([2]; 300 μg dose group (n=4)): 4 subjects
patients reporting transient burning pain immediately following instillation ([2]; 300 μg intra-articular): 4 of 4
VAS reduced, prior to administration vs day of surgery ([2]; 9 active patients of the 4, 7 and 14 day cohorts, doses 10-300 μg pooled): 62±14%
effects on laboratory safety parameters or vital signs [2, 6]: no treatment related effects
effects on soft tissue, cartilage, or bone upon histopathological examination [2, 6]: no treatment related effects
gross and microscopic pathology [2, 6]: normal
signs of erythema, edema, or hemorrhage at the site of injection [2, 6]: no treatment related signs
systemic side effects [2, 6]: No treatment related systemic side effects were seen
tolerability [2, 6]: well tolerated at all dose levels
median decrease from baseline to pre-operative time point in VAS for pain at the target knee, compared with placebo ([2]; all 3 capsaicin dose groups): substantially greater
average duration of post injection hyperalgesia ([2]; all cases): less than thirty minutes
onset of post-administration (hyper)algesia after administration ([2]; all episodes, 100 μg and 300 μg): ≤ 5 min
indication of efficacy on VAS pain ([2]; any of the dose levels (10 μg, 100 μg, 300 μg)): No clear treatment related indication of efficacy
solubility in alcohol, ether, benzene and chloroform [3]: freely soluble
effect on pain score and use of rescue ([4]; 1000 μg into the wound prior to wound closure): reduced both pain score as well as the use of rescue
VAS pain score at operation site (Table 4) ([4]; 8 hr): 5.5 +/− 2.3
VAS pain score at operation site (Table 4) ([4]; 12 hr): 8.2 +/− 3.8
VAS pain score at operation site (Table 4) ([4]; 24 hr): 1.9 +/− 1.0
VAS pain score at operation site (Table 4) ([4]; 48 hr): 5.9 +/− 2.5
study subjects requiring rescue ([4]; 1000 μg prior to wound closure, within 72 hours, n=11, P<0.05 vs placebo): 40%
radiation induced hyperalgesia ([5]; final doses of 25 mg/kg or less prior to ultra violet radiation): prevented radiation induced hyperalgesia
pain threshold ([5]; final doses of 25 mg/kg or less): did not elevate the pain threshold above normal range
pain threshold ([5]; final doses of 50 mg/kg or greater): pain threshold elevated
